Test results as given in ChEMBL document CHEMBL1149390, “Potent CYP19 (aromatase) 1-[(benzofuran-2-yl)(phenylmethyl)pyridine, -imidazole, and -triazole inhibitors: synthesis and biological evaluation” (J Med Chem, 2006).
Active and inactive are the calls of the source. The calls are words filed in the database; no cut-off is given here.

Experiments:
Hepatocyte [1] = details: Rattus norvegicus
Hepatocyte [2] = assay: cells; type: functional; details: Rattus norvegicus, 24 h, read-out: LC50 (the source's name)

Row | SMILES | LC50 (Hepatocyte [1]) | CC50 (Hepatocyte [2])
1 | COc1ccc(C(O)(c2cccnc2)c2cc3ccc(OC)cc3o2)cc1 (stereo not drawn) | inactive | 100 µM
2 | COc1ccc2cc(C(c3ccc(F)cc3)n3cncn3)oc2c1 (stereo not drawn) | inactive | 100 µM
3 | COc1ccc2cc(C(c3ccc(Cl)cc3)n3cncn3)oc2c1 (stereo not drawn) | inactive | 50 µM
4 | COc1ccc2cc(C(O)(c3ccc(F)cc3)c3cccnc3)oc2c1 (stereo not drawn) | inactive | > 100 µM
5 | CC(C)(C#N)c1cc(Cn2cncn2)cc(C(C)(C)C#N)c1 [ANASTROZOLE] |  | > 200 µM
6 | COc1ccc(C(c2cc3ccc(OC)cc3o2)n2ccnc2)cc1 (stereo not drawn) | inactive | 50 µM
7 | COc1ccc(C(c2cc3ccc(OC)cc3o2)n2cncn2)cc1 (stereo not drawn) | inactive | 90 µM
